This note sets out measurements from paper PMC12648656, “Palladium(II) Complexes with Noncovalent Interactions with DNA: Solution Speciation Controlled by Solvent Identity, pH, and Concentration” (Inorganic Chemistry, 2025).

Data set [1] has as its system Colo 205 human colon cancer cell line. Nature of the data set: In vitro cytotoxicity, MTT. In kind it is cell-based. Conditions: Colo 205, 72 h exposure. How it is done: (§1) Cell culture reagents were obtained from Merck, and plasticware was obtained from Sarstedt. Human colon adenocarcinoma cell line Colo 205 (ATCC CCL-222) and MCF7 (ATCC HTB-22) breast cancer cells were purchased from LGC Promochem. Cancer cells were cultured in RPMI 1640 medium supplemented with 10% heat-inactivated fetal bovine serum, 2 mM L-glutamine, and 1 mM sodium pyruvate and buffered with 100 mM HEPES. The cells were incubated at 37 °C in a 5% CO2, 95% air atmosphere and were detached with Trypsin-Versene (EDTA) solution for 5 min at 37 °C.
(§2) The tested ligands were dissolved in DMSO, and the stock solutions (5 mM) were diluted in complete culture medium. Two-fold serial dilutions of compounds were made in 100 μL of the medium, horizontally. The semiadherent colon adenocarcinoma cells were treated with Trypsin-Versene (EDTA) solution. They were adjusted to a density of 1 × 10^4 cells in 100 μL of RPMI 1640 medium and were added to each well, with the exception of the medium control wells. The final volume of the wells containing compounds and cells was 200 μL. The plates containing the cells were incubated at 37 °C for 72 h; at the end of the incubation period, 20 μL of MTT solution (5 mg/mL) was added to each well. After incubation at 37 °C for 4 h, 100 μL of sodium dodecyl sulfate solution (10% in 0.01 M HCl) was added to each well, and the plates were further incubated at 37 °C overnight. Cell growth was determined by measuring the optical density (OD) at 540 and 630 nm with a Multiskan EX plate reader (Thermo Labsystems).
(§3) Curves for the data obtained on cancer cells were fitted by GraphPad Prism software using the sigmoidal dose–response model (comparing variable and fixed slopes). The IC50 values were always obtained from at least three independent experiments.

Data set [2] has as its system MCF7 human breast cancer cell line. The experiment in a line: In vitro cytotoxicity, MTT. In kind it is cell-based. The settings on record: MCF7, 72 h exposure. How it is done:
as §1, §2, §3

For data set [3], the system named is methicillin-resistant Staphylococcus aureus (ATCC 43300). The experiment in a line: microbe, parasite or virus in culture. In kind it is cell-based. Conditions: S. aureus (MRSA), 18 h, 37 °C. As to the method: Antibacterial activity was determined for the title compounds in various Gram-negative and Gram-positive bacterial strains, namely Klebsiella pneumoniae, Escherichia coli (ATCC 25922), Staphylococcus aureus (272123), methicillin-resistant Staphylococcus aureus (ATCC 43300), and Enterococcus faecalis (ATCC 29212). The stock solutions of the tested compounds were prepared in DMSO at a 5 mM concentration. […] All stock solutions were diluted in 100 μL of Mueller Hinton Broth, and then two-fold serial dilutions were performed. Then, a 10^–4 dilution of an overnight bacterial culture in 100 μL of medium was added to each well, except for the medium control wells. The highest concentration of the compounds in the tested samples was 100 μM. The plates were incubated at 37 °C for 18 h. After that, the MIC values were determined by visual inspection.

Data set [4] in a line: Stability in physiological buffers (Tris, phosphate, HEPES) by UV-vis. In kind it is physicochemical. As to the method:
The reaction of the metal complexes (2) and (3) with buffer components was followed in an array of DMSO percentages, from 1% to 60% (v/v) DMSO/H2O (pH 7.4) medium. The samples were prepared by dilution of the stock solution of the respective complex in DMSO (5 mM) with 5 mM Tris 1% (v/v) DMSO/H2O or 5 mM phosphate buffers 60% (v/v) DMSO/H2O (pH 7.40 in both cases), reaching a final concentration of 10^–6 to 10^–4 M. The UV–vis spectra of the final samples were followed over time at 37 °C for up to 24 h.

A short description of data set [5]: HPLC analysis of aqueous solution integrity. In kind it is physicochemical. Conditions: 20 μM in 3% DMSO aqueous solution, after 24 h, 254 nm. As to the method: Prior to the injection to the column, 20 μL was taken and diluted with 180 μL of HPLC-grade acetonitrile at various time points (t = 0 and 24 h). 20 μL of this diluted sample was injected in the Zorbax Eclipse Plus C18 column (4.6 × 100 mm, 3.5 μm): flow rate, 1 mL/min; detection, UV 254 nm; flow solvent system A/B (acetonitrile/water, v/v): 70:30 and analyzed with 254 nm radiation up to 10 min.

The nature of data set [6]: Stability and DMSO coordination in DMSO by 1H NMR. The data set is classed as physicochemical. How it is done:
(a) Complex (2) solutions in DMSO (D2O) investigated by NMR spectroscopy: Trying to investigate if the higher concentration is responsible for the complex transformation process in DMSO, we monitored the solution of complex (2) at 0.5 and 1 mM by ^1H NMR spectroscopy (Figure a). We could clearly see that complex (2) is only detected pure at a concentration of 0.5 mM.
NMR spectra were recorded at room temperature, using a two-channel 300 MHz Bruker Avance III-HD Nanobay spectrometer equipped with a 5 mm BBO 1H/X probe and Z gradients, located at the Interdepartmental Investigation Service (SIdI). DMSO-d 6 was used as the solvent (containing 0.05% (v/v) tetramethylsilane (TMS) as a reference). Chemical shift values are given in parts per million relative to the residual TMS signals. The following abbreviations were used: s (singlet), d (doublet), and m (multiplet). Elemental analyses were performed on a LECO CHNS-932 elemental analyzer located at SIdI. Mass spectra were recorded using FAB (fast atom bombardment) in a Waters VG AutoSpec mass spectrometry unit and using MALDI (matrix-assisted laser desorption/ionization) with a Bruker Ultraflex III (MALDI-TOF/TOF) mass spectrometry unit, both located at SIdI. Infrared (IR) spectra were recorded using a PerkinElmer Model 283 spectrometer with an attenuated total reflectance (ATR) MIRacle Single Reflection Horizontal accessory and equipped with CsI optical windows for spectra between 600 and 200 cm^–1 in Nujol mull preparations. Absorbance spectra were recorded using a Thermo Evolution 220 spectrophotometer to record the UV–visible region, equipped with temperature control within ±0.1 °C. Viscosity measurements were performed using an A&D SV-1A vibro viscometer. HPLC analyses were carried out utilizing a 1200 Infinity series HPLC system provided by Agilent Technologies coupled to a photodiode array detector.

For the compound `Clc1ccc(N=C2N[N+](=Cc3c[nH]cn3)[Pd-2]3([S]C(Nc4ccc(Cl)cc4)=N[N+]3=Cc3c[nH]cn3)[S]2)cc1` (stereo not drawn) [(2), Bis(1H-imidazole-4-carboxaldehyde-4N-p-chlorophenylthiosemicarbazonato)palladium(II)], the IC50 in data set [1] was found to be 11.8 ± 0.35 µM; in data set [2] it was 1.55 ± 0.03 µM. This compound also yielded an MIC in data set [3] of over 100 µM. Also, the “behaviour in HEPES buffer” value in data set [4] (HEPES, pH 7.4, 0.1 M chloride, 60% DMSO) is on record as “formed precipitation”. Also, the “time stable in solution, no precipitation” value in data set [4] (Tris buffer containing 3% (v/v) DMSO, pH 7.4, 20.0 μM) was “up to 24 h”. Besides, the “stability after 24 h” value in data set [4] (Tris buffer, 60% DMSO) is “decreased the stability”. Moreover, the “behaviour in phosphate buffer” value is listed as “precipitated” in data set [4] (pH 7.4, 0.1 M chloride, 3% (v/v) DMSO) and “major structural changes” in data set [4] (pH 7.4, 0.1 M chloride, 60% (v/v) DMSO, first 10 h). Moreover, the “integral of the HPLC signal of intact complex” value in data set [5] is “only slightly diminished”. For the same compound, the “molar fraction of DMSO-coordinated species (complex (3)) formed” value in data set [6] (0.5 mM) worked out at 0%; in data set [6] (3 mM, does not increase over 24 h), 8%. Also, in data set [6] (in DMSO), the “time 1H NMR spectrum remains stable” value is “up to 24 h”.

As a reminder, the IC50 is the concentration that gives 50% inhibition. A low value points to higher potency.
